Columns and labels:
complementary DNA strand = assay: Thermal denaturation (melting curve) of RNA template 1 annealed to complementary DNA; format: physicochemical; details: duplex with complementary DNA, phosphate buffer pH=7.2, 100 mM NaCl, 300 nM
Experimental: Hybridization of untreated, cloaked, and uncloaked RNA was examined. Initial experiments measured the effect of photocloaking on thermal stability of a duplex. Untreated and cloaked RNA template 1 (Seq. ID No. 2) were annealed to its complementary DNA strand in phosphate buffer pH=7.2, 100 mM NaCl at 300 nM by heating the sample to 95° C. for 2 min and then cooling to room temperature. Melting curves were obtained by monitoring the absorbance at 260 nm of the nucleic acid solution while increasing the temperature at a rate of 1° C./min. Curves were smoothed by adjacent averaging.

[1] = system: complementary fluorogenic DNA (Q-STAR) probes; assay: Nucleic acid-templated fluorogenic Q-STAR reaction (hybridization); format: biochemical
Experimental: To further test the effect of cloaking on hybridization, a nucleic acid-templated reaction was employed with complementary fluorogenic DNA (Q-STAR) probes (R. M. Franzini and E. T. Kool J. Am. Chem. Soc. 2009, 131, 16021-23; and W. A. Velema and E. T. Kool J. Am. Chem. Soc. 2017, 139, 5405-11; the disclosures of which are herein incorporated by reference). RNA template (untreated, cloaked or photo-uncloaked) was dissolved in 70 mM Tris-Borate buffer pH=7.0, 10 mM MgCl2 to a concentration of 200 nM. To this was added QSTAR probe (200 nM; Seq. ID No. 3) and TPP probe (400 nM; Seq. ID No. 4) and the fluorescence was monitored overtime at 25° C. on a Fluorolog 3-11 instrument (Jobin Yvon-SPEX). λex=497 nm and λem=519 nm. Plots were smoothed by adjacent averaging. […] After the cloaked RNA was exposed to light for up to an hour and subjected to the Q-STAR hybridization probes, a strong restoration of signal (82% of original) was observed (FIG. 17B), consistent with uncloaking at relatively high efficiency.

12 nt DNA = assay: Control incubation of analogous 12 nt DNA with PCA 1 (PAGE); details: analogous 12 nt DNA incubated with PCA 1
[2] = system: 34 nt hammerhead ribozyme RNA; assay: Hammerhead ribozyme cleavage of Cy5-labeled substrate (urea PAGE); format: biochemical
From the text: In this example, the ability of photocloaking to control the more complex function of a ribozyme RNA was examined. To form proper tertiary structure and initiate activity, RNA-cleaving ribozymes hybridize and bind metals (See Y Liu, T. J. Wilson, and D. M. J. Lilley Nat. Chem. Biol. 2017, 13, 508-13, the disclosure of which is herein incorporated by reference. Several examples of photocontrolled ribozymes have been reported previously (See S. G. Chaulk and A. M. MacMillan Nucleic Acids Res. 1998, 26, 3173-78; A. Nierth, M. Singer and A Jaschke Chem. Commun. (Camb). 2010, 46, 7975-77; D. D. Young and A. Dieters Bioorganic Med. Chem. Lett. 2006, 16, 2658-61; and S. G. Chaulk and A. M. MacMillan, 2007 cited supra; the disclosures of which are herein incorporated by reference), with the goal of studying ribozyme structure and folding. All prior studies, however, have been performed with modifications incorporated into RNAs during solid-phase synthesis. Thus, PCA 1 was tested whether it could be used to block a ribozyme in a single post-synthetic step, and subsequently phototrigger its activity. A 34 nt hammerhead ribozyme RNA (FIG. 18A; Seq. ID No. 5) was cloaked under standard conditions at room temperature and isolated from excess reagent and DMSO by precipitation. The cloaked ribozyme (200 nM) was then incubated with Cy5-labeled substrate (500 nM) in 50 mM Tris pH=6.0, 10 mM MgCl2 for 1 hour. The reaction was stopped by the addition of 8 M urea, 100 mM EDTA solution and then analyzed by urea PAGE (FIGS. 18B and 18C). […] The initial rates of substrate conversion were determined before and after cloaking (FIGS. 18D and 18E). […] After cloaking, the rate dropped 370-fold to 3.010^−3 min^−1, showing strong blocking of ribozyme function. […] Thus, ribozyme function can be robustly controlled by a direct photocloaking strategy.

[3] = system: 105 nt F30 Broccoli aptamer; assay: Broccoli aptamer folding / DFHBI fluorescence emission in vitro; format: biochemical; details: RNA cloaked 4 h with 100 mM PCA in water, no light
Experimental: In this example, the ability of PCAs to control longer RNAs produced by transcription was tested. Photocontrolled aptamers have recently gained interest due to their potential for therapeutic and imaging applications, as exemplified by recent work by Langer and Kohane in which a 26nt nucleolin-binding aptamer for cancer targeting was reported (L. Li et al. Proc. Natl. Acad. Sci. 2014, 111, 17099-103, the disclosure of which is herein incorporated by reference; See also, M. C. Buff et al Nucleic Acids Res. 2009, 38, 2111-18; L. Qiu et al. J. Am. Chem. Soc. 2013, 135, 12952-55; A Heckel and G. Mayer J. Am. Chem. Soc. 2005, 12, 822-23; and A. Pinto et al. ACS Chem. Biol. 2012, 7, 360-66; the disclosure of which are herein incorporated by reference). […] Broccoli RNA folds into a compact tertiary structure, forming a binding site for the DFHBI dye, which results in a strong increase in fluorescence.
F-30 Broccoli DNA template (3 ng) (Table S1) was amplified by PCR (98° C. for 30 s; 30 times: 98° C. for 10 s, 61° C. for 30 s, 72° C. for 30 s; 72° C. for 5 min, 4° C. forever) using Phusion High-Fidelity PCR master Mix (NEB), and primers mix in 50 μL reaction, according to the NEB protocol. […] Fluorescent emission spectra were recorded on a Fluorolog 3-11 instrument (Jobin Yvon-SPEX), λex=450 nm at 25° C. […]

[4] = system: F30-2xd Broccoli aptamer RNA in HeLa cells; assay: Epifluorescence microscopy of HeLa cells transfected with 237 nt Broccoli aptamer RNA; format: cell-based, human
Experimental: In this example, the capability to use this photocloaking strategy to switch on RNA function in cells was assessed by transfecting a cloaked Broccoli RNA construct into human cells and then exposing cells to light was explored. For these experiments, a larger 237 nt RNA (Seq. ID No. 7) construct encoding two dimeric Broccoli aptamers was prepared. This construct is known to be stable in the intracellular medium (G. S. Filonoy et al. Chem. Biol. 2015, 22 (5), 649-60, the disclosure of which is herein incorporated by reference). Accordingly, F30-2xdB_2 DNA (100 pmol; Seq. ID No. 8) was 5′ adenylated using Mth Ligase (100 pmol, NEB) according to NEB's protocol. Mini Elute columns, and PNI Buffer (Qiagen) were used to clean up double stranded DNA samples according to manufacturer's instructions. ssDNAs F30-2xdB_2 (40 pmol) and F30-2xdB_1 (20 pmol) were ligated according to NEB description, using Thermostable 5′ App DNA/RNA Ligase (40 pmol, NEB). Ligated DNA was purified on DNA Clean&Concentrator 5 columns (Zymo Research) using Zymo's protocol. F-30 2xd Broccoli ssDNA template (3 ng) was amplified by PCR (98° C. for 30 s; 30 times: 98° C. for 10 s, 60° C. for 30 s, 72° C. for 30 s; 72° C. for 5 min, 4° C. forever) using Phusion High-Fidelity PCR master Mix (NEB), and primers mix in 50 μL reaction, according to the NEB protocol. […]

Which results are given for “cloaked RNA template 1: RNA template 1 (Seq. ID No. 2, 5′ GCU CCC CAG CUU UCG C) acylated at 2′-OH with photocloaking groups (GCUCCCCAGCUUUCGC; RNA, backbone not given here; 2'-OH acylated with photocloaking groups, further chemistry not fully specified)”?
difference in melting temperature vs untreated RNA strand (complementary DNA strand): 10 °C; restoration of signal ([1]; cloaked RNA exposed to light for up to an hour): 82 % of original; fluorogenic templated reaction signal ([1]; cloaked RNA template 200 nM, no light, 25° C.): 9 % of untreated RNA

`COc1cc(COC(=O)n2ccnc2Cl)c([N+](=O)[O-])cc1OCCN(C)C` [PCA 1, 4-(2-(dimethylamino)ethoxy)-5-methoxy-2-nitrobenzyl 2-chloro-1H-imidazole-1-carboxylate] was tested. Which “reaction with DNA” value (12 nt DNA) did it give?
The value was < 5%.

What about the “drop of rate vs mock-treated ribozyme” value ([2]; after cloaking with PCA 1) of the same molecule?
Its value is 370 fold.

And the “initial rate of substrate conversion” value ([2]; cloaked RNA exposed to light)?
The value was 1.1 min⁻¹.

What about the “ribozyme function after uncloaking” value ([2]; cloaked with PCA 1, after 365 nm light exposure) of the same molecule?
Its value is “almost completely restored”.

What about the “ribozyme activity (substrate cleavage)” value ([2]; ribozyme cloaked with PCA 1, 200 nM, substrate 500 nM, 1 hour) of the same molecule?
Its value is “almost complete abrogation of activity”.

And the “Broccoli RNA fluorescence with DFHBI” value [3]?
The value was “strong suppression of fluorescence”.

What does the source list for `COc1cc(C(C)OC(=O)n2ccnc2Cl)c([N+](=O)[O-])cc1OCCN(C)C` (stereo not drawn) [PCA 2, 1-(4-(2-(dimethylamino)ethoxy)-5-methoxy-2-nitrophenyl)ethyl 2-chloro-1H-imidazole-1-carboxylate]?
fluorescence signal in cells ([4]; 237 nt RNA cloaked with PCA 2, HeLa cells, subsequent light exposure (30 minutes)): emergence of a visible green fluorescence signal; fluorescence signal in cells ([4]; 237 nt RNA cloaked with PCA 2, transfected in HeLa cells, no light): no measurable signal above background; Broccoli RNA fluorescence with DFHBI [3]: very dim fluorescence
